Results taken from patent US9439980B2, “Thymidylate kinase fusions and uses thereof” (priority 2008, dated 2016).

Tested on: Jurkat cells
Assay: HPLC determination of AZT metabolites in cells treated with 100 μM AZT
Assay type: cell-based, human
Details: 36 hrs
Protocol: The cells were cultured in the presence of 100 μM AZT for 36 hrs. 10^7 cells were homogenized by sonication in 100 μl of 5% (w/v) trichloroacetic acid. The supernatant is collected after homogenate had been centrifuged at 10,000×g for 15 min at 4° C. The trichloroacetic acid was removed by extraction with an equal volume of 20% tri-n-octylamine in pentane. The neutralized aqueous fraction is directly injected into HPLC. Separation of AZT and its metabolites was performed on a C18 column (Waters) with a mobile phase composed of 0.2 M phosphate buffer containing 4 mM tetrabutylammonium hydrogen sulfate (pH 7.5) and acetonitrile in the ratio of 97:3 (v/v). The mobile phase was pumped at a flow rate of 1.5 ml/min. The UV absorbance was monitored at 270 nm. Five million cell equivalents were injected and analyzed in triplicate.

## Cc1cn([C@H]2C[C@H](N=[N+]=[N-])[C@@H](CO)O2)c(=O)[nH]c1=O [AZT, 3′-azido-3′-deoxythymidine]
  conversion ratio of AZT-TP to AZT-MP in non-transduced cells: 0.02
